According to patent US12286452B2, “Amphiphilic aminoglycoside connexin hemichannel inhibitors” (Texas Tech University System, priority 2018, dated 2025):
Where two headings read alike, the source gives them in different places.

Columns and labels:
Cx43 HCs [1] = molecular target: T1, Cx43 HCs (Homo sapiens, UniProt P17302); settings: cited from earlier work
T1 construct: expressed in transfected cells

Cx43 HCs [2] = molecular target: T1, Cx43 HCs; test: Cx43-dependent growth complementation assay in E. coli LB2003; type: cell-based; settings: for Cx43/Cx26 Selectivity: IC50 Cx26/IC50 Cx43
human Cx26 HCs [3] = molecular target: T2, human Cx26 HCs (Homo sapiens, UniProt P29033); settings: commercial aminoglycosides, the 16th table, adapted from ref. 1; cited from earlier work
T2 construct: expressed in transfected cells; host or cells: E. coli LB2003 (carrying pREP4), transformed with pQE-Cx26, IPTG-induced

human Cx26 HCs [4] = molecular target: T2, human Cx26 HCs; test: Cx26-dependent growth complementation assay in E. coli LB2003; type: cell-based
Procedure: These derivatives were prepared by sequential benzylation and methylation followed by reduction of azido groups or hydrogenolysis of the Bn. […] Connexin HC inhibition was conducted using a bacteria-based assay of HC function^39. In this assay, Cx26 HCs are expressed in E. coli LB2003 cells, which lack three major K^+ uptake systems (Kdp, Kup and Trk), and as a result they cannot grow in low-[K^+] media^39-41. However, growth of this E. coli strain in low-[K^+] medium can be rescued by expression of K^+-permeable channels such as connexin HCs^39, 42-43. Under the conditions of the assay (LB2003 cells expressing HCs and grown in low-K^+ medium), inhibition of the HCs reduces or abolishes growth^39, 42-43. This is a simple assay where bacterial growth in multi-well plates can be followed by measuring the absorbance at 600 nm (OD600)^29.
LB2003 cells generously provided by Dr. E. P. Bakker (Osnabruk University, Osnabruk, Germany) were transformed with the plasmid pQE-Cx26 (human Cx26 into pQE60) and pREP4. […] LB2003 cells cannot grow in low-[K^+] media because of insufficient K^+ uptake for growth due to the knockout of three key K^+ transporters (Atrk, Akup, Akdp strain)^2-4. Details and validation of the growth complementation assay have been published recently^2. In brief, competent LB2003 containing the pREP4 plasmid were transformed with pQE-Cx26. These cells were grown overnight in Luria-Bertani medium (BD, Franklin Lakes, NJ, USA) supplemented with 100 mM KCl (to allow growth) and 0.4 mg/mL ampicillin, and then washed four times with NLM (see below), to remove residual K^+ from the Luria-Bertani medium. The washed cells were resuspended in complementation growth medium to an OD600 of 0.2. NLM contained 46 mM Na2HPO4, 23 mM NaH2PO4, 8 mM (NH4)2SO4, 0.4 mM MgSO4, 0.012 mM FeSO4, 1 mM sodium citrate, 44 mM glucose and 0.006 mM thiamine hydrochloride, pH 7.0. KLM had the same composition that NLM except for the equimolar replacement of Na^+ with K^+. For growth complementation we used NLM+4 mM KCl, and Cx26 expression was induced with 0.5 mM IPTG at the time of dilution to OD600=0.2. For the assay, the cells were seeded in 96-well plates and were incubated at 30° C., with shaking at 500 rpm. OD600 was measured after 18-h incubation in a plate reader. The initial OD600=0.2 was subtracted for growth calculations. Data are presented as means±SEM. Statistically significant differences were calculated by the Student t-test for unpaired data. Data were obtained from at least 3 independent experiments, with 3 repeats per experiment.

[5] = commercial aminoglycosides, the 16th table, adapted from ref. 1, read-out: Cx43 IC50
[6] = 15 μM, Table 3, read-out: Cx243% inhibition
[7] = Table 3, read-out: Cx243% inhibition
[8] = 15 μM, KI members, the 23rd table, read-out: Cx43 % inhibition
[9] = 15 μM, Table 6, read-out: Cx43 (% inhibition)
[10] = KI members, the 23rd table, read-out: Cx43 % inhibition
[11] = Table 6, read-out: Cx43 (% inhibition)

T1 sequence (P17302 whole entry): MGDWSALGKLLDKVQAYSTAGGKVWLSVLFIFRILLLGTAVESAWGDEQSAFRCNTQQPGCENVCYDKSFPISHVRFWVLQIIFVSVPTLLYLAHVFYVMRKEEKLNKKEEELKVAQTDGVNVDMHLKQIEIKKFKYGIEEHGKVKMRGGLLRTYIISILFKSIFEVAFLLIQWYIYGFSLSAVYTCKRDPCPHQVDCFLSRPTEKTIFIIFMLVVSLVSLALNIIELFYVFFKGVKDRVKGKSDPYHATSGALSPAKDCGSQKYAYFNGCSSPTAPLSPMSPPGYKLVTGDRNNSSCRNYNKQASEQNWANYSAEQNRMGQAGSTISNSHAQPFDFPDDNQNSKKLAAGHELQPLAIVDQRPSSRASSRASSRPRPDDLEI

Row | SMILES | inhibition at 15 µM (Cx43 HCs [2]; [6]) [%] | inhibition at 50 µM (Cx43 HCs [2]; [7]) [%] | inhibition at 15 µM (human Cx26 HCs [4]; Table 3) [%] | inhibition at 50 µM (human Cx26 HCs [4]; Table 3) [%] | inhibition at 15 µM (Cx43 HCs [2]; [8]) [%] | inhibition at 15 µM (Cx43 HCs [2]; [9]) [%] | inhibition at 50 µM (Cx43 HCs [2]; [10]) [%] | inhibition at 50 µM (Cx43 HCs [2]; [11]) [%] | inhibition at 15 µM (human Cx26 HCs [4]; Table 6) [%] | inhibition at 50 µM (human Cx26 HCs [4]; Table 6) [%] | further results
1 | NC[C@H]1O[C@H](O[C@H]2[C@H](O)[C@@H](O[C@H]3O[C@H](CO)[C@@H](O)[C@H](N)[C@H]3O)[C@H](N)C[C@@H]2N)[C@H](N)[C@@H](O)[C@@H]1O [Kanamycin B] | – | – | – | – | – | – | – | – | – | – | IC50 (Cx43 HCs [1]; [5]): 24 ± 2 µM; Cx43/Cx26 Selectivity (Cx43 HCs [2]; the 16th table): 0.15; IC50 (human Cx26 HCs [3]): 3.6 ± 0.9 µM
2 | NCC1O[C@H](OC2C(N)CC(N)C(OC3O[C@H](CO)C(O)C(N)[C@H]3O)C2O)C(O)[C@@H](O)[C@@H]1O (stereo in doubt) [Kanamycin A, reference compound] | 15.6 ± 1.4 | 40.4 ± 1 | 49.7 ± 1.6 | 77.4 ± 1.8 | – | – | – | – | – | – | IC50 (Cx43 HCs [1]; approximate, text b120, read-out: IC50 for inhibition of Cx43 HCs): ~50 µM
3 | CN[C@@H]1[C@@H](O)[C@@H](O[C@@H]2[C@@H](O)[C@H](O[C@H]3O[C@H]([C@@H](C)O)[C@@H](O)[C@H](O)[C@H]3N)[C@@H](N)C[C@H]2N)OC[C@]1(C)O [Compound G418, G418] | – | – | – | – | – | – | – | – | – | – | IC50 (Cx43 HCs [1]; [5]): 3 ± 0.8 µM; Cx43/Cx26 Selectivity (Cx43 HCs [2]; the 16th table): 0.20; IC50 (human Cx26 HCs [3]): 0.44 ± 0.06 µM
4 | COc1ccc(COCC2OC(OC3C(N)CC(N)C(OC4OC(CN)C(O)C(O)C4O)C3O)C(O)C(N)C2OCc2ccc(OC)cc2)cc1 (stereo not drawn) [Compound 10, 4″,6″-Di-O-(4-methoxybenzyl) kanamycin] | – | – | – | – | – | – | – | – | – | – | IC50 (Cx43 HCs [2]; 4″,6″-disubstituted AKs, Table 5, read-out: Cx43 IC50): 4.1 ± 1.5 µM; Cx43/Cx26 Selectivity (Cx43 HCs [2]; Table 5, listed as 2b): 3.17; IC50 (Cx43 HCs [2]; K46 members, the 20th table, read-out: IC50 (μM) against Cx43): 4.1 ± 1.5 µM; IC50 (Cx43 HCs [2]; the 12th table, Hill fit, mean ± SEM, some n = 1, read-out: Cx43 IC50): 4.1 ± 1.5 µM; IC50 (human Cx26 HCs [4]; first Table 2, read-out: IC50, inhibition of Cx26 by synthetic AGs): 13 ± 0.7 µM

Now from value to compound, other results behind:

Row | inhibition at 15 µM (Cx43 HCs [2]; [6]) [%] | inhibition at 50 µM (Cx43 HCs [2]; [7]) [%] | inhibition at 15 µM (human Cx26 HCs [4]; Table 3) [%] | inhibition at 50 µM (human Cx26 HCs [4]; Table 3) [%] | inhibition at 15 µM (Cx43 HCs [2]; [8]) [%] | inhibition at 15 µM (Cx43 HCs [2]; [9]) [%] | inhibition at 50 µM (Cx43 HCs [2]; [10]) [%] | inhibition at 50 µM (Cx43 HCs [2]; [11]) [%] | inhibition at 15 µM (human Cx26 HCs [4]; Table 6) [%] | inhibition at 50 µM (human Cx26 HCs [4]; Table 6) [%] | SMILES | further results
5 | 25.5 ± 7.1 | 51 ± 2.5 | 8.8 ± 2 | 22.8 ± 2.2 | 25.5 ± 7.1 | 25.5 ± 7.1 | 51 ± 2.5 | 51 ± 2.5 | 8 ± 2 | 22.8 ± 2.2 | NC1CC(N)C(O[C@H]2OC(CNC(=O)c3cc(-c4ccccc4)nc4ccccc34)[C@@H](O)C(O)C2O)[C@H](O)C1OC1O[C@H](CO)C(O)C(N)[C@H]1O (stereo partly drawn) [KI08] | –
6 | – | – | 36.9 ± 3.9 | 79.2 ± 7.5 | 43 ± 10.7 | > 50 | 56.8 ± 11 | 69.6 ± 7.5 | 36.9 ± 3.9 | 79.2 ± 7.5 | NC1CC(N)C(O[C@H]2OC(CNC(=O)CCCc3ccc4ccc5cccc6ccc3c4c56)[C@@H](O)C(O)C2O)[C@H](O)C1OC1O[C@H](CO)C(O)C(N)[C@H]1O (stereo partly drawn) [KI09] | Cx43 inhibition (%) (Cx43 HCs [2]; 15 μM, Table 6, listed as 4e): 52.2 ± 8.8%; Cx43/Cx26 Selectivity (Cx43 HCs [2]; Table 7): 2,16; IC50 (Cx43 HCs [2]; Table 7, read-out: Cx43 IC50): 8.6 ± 1 µM; Cx43 Imax (Cx43 HCs [2]; the 15th table, second Cx43 column, sub-head and unit not given): 80.2 ± 7.0; IC50 (Cx43 HCs [2]; the 15th table, sub-head and unit inferred, read-out: Cx43 IC50): 8.6 ± 3 µM; Cx26 Imax (human Cx26 HCs [4]; the 15th table, Cx26, sub-head and unit not given): 95.3 ± 3.5; IC50 (human Cx26 HCs [4]; the 15th table, Cx26, unit not given (cf. the 22nd table), read-out: Cx26 IC50): 18.6 ± 2.1 µM
7 | 56.8 ± 8.8 | 83.4 ± 1.1 | 22.3 ± 6.9 | 79.6 ± 3.5 | 56.8 ± 8.8 | > 50 | 83.4 ± 1.1 | 83.4 ± 1.1 | 22.3 ± 6.9 | 79.6 ± 3.5 | NC1CC(N)C(O[C@H]2OC(CNC(=O)c3ccccc3-c3c4ccc(=O)cc-4oc4ccc(O)cc34)[C@@H](O)C(O)C2O)[C@H](O)C1OC1O[C@H](CO)C(O)C(N)[C@H]1O (stereo partly drawn) [KI10] | Cx43/Cx26 Selectivity (Cx43 HCs [2]; Table 7): 1.42; IC50 (Cx43 HCs [2]; Table 7, read-out: Cx43 IC50): 8.9 ± 3.7 µM; IC50 (human Cx26 HCs [4]; Table 7, read-out: Cx26 IC50): 12.7 ± 2.2 µM
